Measured values taken from patent US11976057B2, “MrgX2 antagonists” (GlaxoSmithKline Intellectual Property Development Limited, priority 2020, dated 2024).

Each molecule was assayed against T1, human MRGPRX2 (Homo sapiens, UniProt Q96LB1) (assay: Ca2+ mobilization assay (FLIPR TETRA): inhibition of Cortistatin-14 mediated MRGPRX2 activation).
T1 sequence (Q96LB1 1-330): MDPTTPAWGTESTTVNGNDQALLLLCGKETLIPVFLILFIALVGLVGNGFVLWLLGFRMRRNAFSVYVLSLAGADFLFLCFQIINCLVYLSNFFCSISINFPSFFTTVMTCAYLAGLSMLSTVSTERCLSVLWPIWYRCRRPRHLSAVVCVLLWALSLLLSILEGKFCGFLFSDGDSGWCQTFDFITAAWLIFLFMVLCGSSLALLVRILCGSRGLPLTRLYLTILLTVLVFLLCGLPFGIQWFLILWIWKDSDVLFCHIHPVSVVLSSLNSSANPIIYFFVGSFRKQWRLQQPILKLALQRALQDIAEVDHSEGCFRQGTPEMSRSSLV

Row | IC50 [nM] | Structure (SMILES)
1 | 100 to 3160 | CC(C(=O)Nc1ccc(C(=O)OC2CC2)cn1)N1CCC(F)(F)[C@@H](c2ccc(=O)[nH]c2)C1 (stereo partly drawn) [Example 83, cyclopropyl 6-(2-((S)-4,4-difluoro-3-(6-oxo-1,6-dihydropyridin-3-yl)piperidin-1-yl)propanamido) nicotinate]
2 | 10 to 100 | C[C@@H](C(=O)Nc1ccc(CC2CCC2)cn1)N1CCC(F)(F)[C@@H](c2ccc(=O)[nH]c2)C1 [Example 84, (S)-N-(5-(cyclobutyl-methyl)pyridin-2-yl)-2-((S)-4,4-difluoro-3-(6-oxo-1,6-dihydropyridin-3-yl)piperidin-1-yl)propanamide]
3 | ≤ 10 | C[C@@H](C(=O)Nc1cnc(Oc2ccc(F)cc2F)cn1)N1CCC(F)(F)[C@@H](c2ccc(=O)[nH]c2)C1 [Example 85, (S)-2-((S)-4,4-difluoro-3-(6-oxo-1,6-dihydropyridin-3-yl)piperidin-1-yl)-N-(5-(2,4-difluorophenoxy)pyrazin-2-yl)propanamide]
4 | 10 to 100 | CC(C(=O)Nc1ncc(Oc2ccc(F)cc2)cc1F)N1CCC(F)(F)[C@@H](c2ccc(=O)[nH]c2)C1 (stereo partly drawn) [Example 86, 2-((S)-4,4-difluoro-3-(6-oxo-1,6-dihydropyridin-3-yl)piperidin-1-yl)-N-(3-fluoro-5-(4-fluorophenoxy)pyridin-2-yl)propanamide]
5 | ≤ 10 | CC(C(=O)Nc1ncc(Oc2ccc(F)cc2F)cc1F)N1CCC(F)(F)[C@@H](c2ccc(=O)[nH]c2)C1 (stereo partly drawn) [Example 87, 2-((S)-4,4-difluoro-3-(6-oxo-1,6-dihydropyridin-3-yl)piperidin-1-yl)-N-(5-(2,4-difluorophenoxy)-3-fluoropyridin-2-yl)propanamide]
6 | 10 to 100 | C[C@@H](C(=O)Nc1ccc(Oc2ccc(Cl)cn2)cn1)N1CCC(F)(F)[C@@H](c2ccc(=O)[nH]c2)C1 [Example 88, (S)-N-(5-((5-chloropyridin-2-yl)oxy)pyridin-2-yl)-2-((S)-4,4-difluoro-3-(6-oxo-1,6-dihydropyridin-3-yl)piperidin-1-yl)propanamide]
7 | 100 to 3160 | C[C@@H](C(=O)Nc1ccc(OCC(C)(C)C)nn1)N1CCC(F)(F)[C@@H](c2ccc(=O)[nH]c2)C1 [Example 89, (S)-2-((S)-4,4-difluoro-3-(6-oxo-1,6-dihydropyridin-3-yl)piperidin-1-yl)-N-(6-(neopenlyloxy)pyridazin-3-yl)propanamide]
8 | ≤ 10 | CC(C(=O)Nc1ccc(Oc2ncc(F)cc2Cl)cn1)N1CCC(F)(F)[C@@H](c2ccc(=O)[nH]c2)C1 (stereo partly drawn) [Example 90, N-(5-((3-chloro-5-fluoropyridin-2-yl)oxy)pyridin-2-yl)-2-((S)-4,4-difluoro-3-(6-oxo-1,6-dihydropyridin-3-yl)piperidin-1-yl)propanamide]
9 | 100 to 3160 | CC(C(=O)Nc1ncc(Oc2ccc(F)cn2)cc1F)N1CCC(F)(F)[C@@H](c2ccc(=O)[nH]c2)C1 (stereo partly drawn) [Example 91, 2-((S)-4,4-difluoro-3-(6-oxo-1,6-dihydropyridin-3-yl)piperidin-1-yl)-N-(3-fluoro-5-((5-fluoropyridin-2-yl)oxy)pyridin-2-yl)propanamide]
10 | 10 to 100 | CC(C(=O)Nc1ccc(Oc2ncc(F)cc2C#N)cn1)N1CCC(F)(F)[C@@H](c2ccc(=O)[nH]c2)C1 (stereo partly drawn) [Example 92, N-(5-((3-cyano-5-fluoropyridin-2-yl)oxy)pyridin-2-yl)-2-((S)-4,4-difluoro-3-(6-oxo-1,6-dihydropyridin-3-yl)piperidin-1-yl)propanamide]
11 | 100 to 3160 | CC(C(=O)Nc1ccc(OC2CC3(CCC3)C2)nn1)N1CCC(F)(F)[C@@H](c2ccc(=O)[nH]c2)C1 (stereo partly drawn) [Example 93, 2-((S)-4,4-difluoro-3-(6-oxo-1,6-dihydropyridin-3-yl)piperidin-1-yl)-N-(6-(spiro[3.3]heptan-2-yloxy)pyridazin-3-yl)propanamide]
12 | 100 to 3160 | CC(C(=O)Nc1ccc(Br)cn1)N1CCC(F)(F)[C@@H](c2ccc(=O)[nH]c2)C1 (stereo partly drawn) [Example 94, N-(5-bromopyridin-2-yl)-2-((S)-4,4-difluoro-3-(6-oxo-1,6-dihydropyridin-3-yl)piperidin-1-yl)propanamide]
13 | 10 to 100 | COc1cccc(Oc2ccc(NC(=O)C(C)N3CCC(F)(F)[C@@H](c4ccc(=O)[nH]c4)C3)nc2)n1 (stereo partly drawn) [Example 95, 2-((S)-4,4-difluoro-3-(6-oxo-1,6-dihydropyridin-3-yl)piperidin-1-yl)-N-(5-((6-methoxypyridin-2-yl)oxy)pyridin-2-yl)propanamide]
14 | ≤ 10 | C[C@@H](C(=O)Nc1ccc(Oc2c(F)cc(F)cc2F)cn1)N1CCC(F)(F)[C@@H](c2ccc(=O)[nH]c2)C1 [Example 96, (S)-2-((S)-4,4-difluoro-3-(6-oxo-1,6-dihydropyridin-3-yl)piperidin-1-yl)-N-(5-(2,4,6-trifluorophenoxy)pyridin-2-yl)propanamide]
15 | ≤ 10 | C[C@@H](C(=O)Nc1ccc(Oc2cc(F)c(F)cc2F)cn1)N1CCC(F)(F)[C@@H](c2ccc(=O)[nH]c2)C1 [Example 97, (S)-2-((S)-4,4-difluoro-3-(6-oxo-1,6-dihydropyridin-3-yl)piperidin-1-yl)-N-(5-(2,4,5-trifluorophenoxy)pyridin-2-yl)propanamide]
16 | 100 to 3160 | C[C@@H](C(=O)Nc1ccc(Oc2ccc(F)cc2CN(C)C)cn1)N1CCC(F)(F)[C@@H](c2ccc(=O)[nH]c2)C1 [Example 98, (S)-2-((S)-4,4-difluoro-3-(6-oxo-1,6-dihydropyridin-3-yl)piperidin-1-yl)-N-(5-(2-((dimethylamino)methyl)-4-fluorophenoxy)pyridin-2-yl)propanamide]
17 | 10 to 100 | Cc1nc(-c2ccc(Oc3ccc(NC(=O)[C@H](C)N4CCC(F)(F)[C@@H](c5ccc(=O)[nH]c5)C4)nc3)c(F)c2)cs1 [Example 99, (S)-2-((S)-4,4-difluoro-3-(6-oxo-1,6-dihydropyridin-3-yl)piperidin-1-yl)-N-(5-(2-fluoro-4-(2-methylthiazol-4-yl)phenoxy)pyridin-2-yl)propanamide]
18 | 10 to 100 | C[C@@H](C(=O)Nc1ccc(OC2CCCC2)nn1)N1CCC(F)(F)[C@@H](c2ccc(=O)[nH]c2)C1 [Example 101, (S)-N-(6-(cyclopentyloxy)pyridazin-3-yl)-2-((S)-4,4-difluoro-3-(6-oxo-1,6-dihydropyridin-3-yl)piperidin-1-yl)propanamide]
19 | 10 to 100 | C[C@@H](C(=O)Nc1ccc(C(F)(F)c2ccc(F)cc2)cn1)N1CCC(F)(F)[C@@H](c2ccc(=O)[nH]c2)C1 [Example 102, (S)-N-(5-(difluoro(4-fluorophenyl)methyl)pyridin-2-yl)-2-((S)-4,4-difluoro-3-(6-oxo-1,6-dihydropyridin-3-yl)piperidin-1-yl)propanamide]
20 | 10 to 100 | C[C@@H](C(=O)Nc1ccc(OCC2CC2)cn1)N1CCC(F)(F)[C@@H](c2c[nH]c(=O)c(N)n2)C1 [Example 105, (S)-2-((R)-3-(6-amino-5-oxo-4,5-dihydropyrazin-2-y1)-4,4-difluoropiperidin-l-y1)-N-(5-(cyclopropylmethoxy)pyridin-2-yl)propanamide]
21 | 10 to 100 | C[C@@H](C(=O)Nc1ccc(F)cn1)N1CCC(F)(F)[C@@H](c2c[nH]c(=O)c(N)n2)C1 [Example 106, (S)-2-((R)-3-(6-amino-5-oxo-4,5-dihydropyrazin-2-yl)-4,4-difluoropiperidin-l-y1)-N-(5-fluoropyridin-2-yl) propanamide]
22 | 100 to 3160 | C[C@@H](C(=O)Nc1ccc(Cl)cn1)N1CCC(F)(F)[C@@H](c2c[nH]c(=O)c(N)n2)C1 [Example 107, (S)-2-((R)-3-(6-amino-5-oxo-4,5-dihydropyrazin-2-y1)-4,4-difluoropiperidin-l-y1)-N-(5-chloropyridin-2-yl)propanamide]
23 | ≤ 10 | C[C@@H](C(=O)Nc1ccc(Oc2ccc(F)cc2)cn1)N1CCC(F)(F)[C@@H](c2c[nH]c(=O)c(N)n2)C1 [Example 108, (S)-2-((R)-3-(6-amino-5-oxo-4,5-dihydropyrazin-2-y1)-4,4-difluoropiperidin-1-y1)-N-(5-(4-fluorophenoxy)pyridin-2-yl)propanamide]
24 | ≤ 10 | CC(C(=O)Nc1ccc(Oc2ccccc2)cn1)N1CCC(F)(F)C(c2cc[n+]([O-])cc2)C1 (centres unmarked) [Example 110]
25 | 10 to 100 | C[C@@H](C(=O)Nc1ccc(OCC2CC2)cn1)N1CCC(F)(F)[C@@H](c2cc[n+]([O-])cc2)C1 [Example 111, 4-((S)-1-((S)-1-((5-(cyclopropylmethoxy)pyridin-2-yl)amino)-1-oxopropan-2-yl)-4,4-difluoropiperidin-3-yl)pyridine 1-oxide]
26 | 100 to 3160 | C[C@@H](C(=O)Nc1ccc(Cl)cn1)N1CCC(F)(F)[C@@H](c2cc[n+]([O-])cc2)C1 [Example 112, 4-((S)-1-((S)-1-((5-chloropyridin-2-yl)amino)-1-oxopropan-2-yl)-4,4-difluoropiperidin-3-yl)pyridine 1-oxide]
27 | 100 to 3160 | C[C@@H](C(=O)Nc1ccc(F)cn1)N1CCC(F)(F)[C@@H](c2cc[n+]([O-])cc2)C1 [Example 113, 4-((S)-4,4-difluoro-1-((S)-1-((5-fluoropyridin-2-yl)amino)-1-oxopropan-2-yl)piperidin-3-yl)pyridine 1-oxide]
28 | ≤ 10 | C[C@@H](C(=O)Nc1ccc(Oc2ccc(F)cc2)cn1)N1CCC(F)(F)[C@@H](c2cc[n+]([O-])cc2)C1 [Example 114, 4-((S)-4,4-difluoro-1-((S)-1-((5-(4-fluorophenoxy)pyridin-2-yl)amino)-1-oxopropan-2-yl)piperidin-3-yl)pyridine 1-oxide]

Row | Structure (SMILES) | IC50 [nM]
29 | C[C@@H](C(=O)Nc1ccc(OC2CCC2)nn1)N1CCC(F)(F)[C@@H](c2ccc(=O)[nH]c2)C1 [Example 100, (S)-N-(6-cyclobutoxy-pyridazin-3-yl)-2-((S)-4,4-difluoro-3-(6-oxo-1,6-dihydropyridin-3-yl)piperidin-1-yl)propanamide] | 100 to 3160
